Source: patent US20100249064A1, “METHODS AND COMPOSITIONS FOR TREATING DISEASES AND CONDITIONS INVOLVING HIGHER MOLECULAR WEIGHT HYALURONAN” (University of Chicago, priority 2007, published 2010)

Assays:
[1] = tested on: Human pulmonary artery EC; test: Cortical actin (phalloidin) staining and quantitation; assay type: cell-based; details: for cortical actin ring formation (F-actin localization): early, timepoint 5 min
Description: Immunofluorescence Microscopy and Cortical Actin Quantitation—Polymerized actin rearrangement was assessed first with Texas Red-conjugated phalloidin (Invitrogen (Molecular Probes), Eugene, Oreg.) and then analyzed using a Nikon Eclipse TE 300 microscope as described (Garcia et al., 2001). ImageQuant™ software (Amersham Biosciences Corp. (Piscataway, N.J.)) was used to analyze the computer recorded .tiff images. A standardized average grey value (SAGV) was generated for total phalloidin staining versus cortical phalloidin staining for each cell (Singleton et al., 2005). The following equation was used to calculate percent cortical actin staining: ((cortical actin SAGV×area) divided by (total actin SAGV×area))×100. At least ten cells per sample were analyzed. Experiments were performed in triplicate.
Immunofluorescence Microscopy. EC were serum-starved for one hour prior to the addition of 100 nM high MW HA. EC were then fixed in 4% paraformaldehyde, permeablized with ethanol and incubated with specific protein or interest primary antibody for 30 min followed by either FITC or Texas Red-conjugated secondary (Invitrogen (Molecular Probes), Eugene, Oreg.) and analyzed using a Nikon Eclipse TE 300 microscope as described (Garcia et. al., 2001).

HPMVEC [2] = test: EC migration (transwell); assay type: cell-based, human; details: 100 nM HA with or without 100 nM VEGF, or siRNA 48 hours then VEGF; 18 hours
Description: (§1) Determination of the role of HMW-HA/CD44 interactions in regulating hyaluronidase activity and angiogenesis in vitro. Human pulmonary microvascular EC (HPMVEC) (Cambrex), grown in EBM-2 complete medium (Cambrex) at 37° C. in a humidified atmosphere of 5% CO2, 95% air, with passages 6-10 used for experimentation was treated with or without 100 nM HMW-HA and/or 100 nM VEGF in the presence or absence of CD44 isoform-specific blocking antibodies (EMD Biosciences), siRNA (scramble, CD44, Hyal-1, Hyal-2, Hyal-3 or Hyal-4) and the potent hyaluronidase inhibitor, L-ascorbic acid 6-hexadecanoate (Botzki et al., 2004) (Sigma). […] Treated EC will either be analyzed for protein expression, hyaluronidase activity or VEGF-induced proliferation, migration or tube formation. […] Cells from the upper and lower chamber were quantitated using the CellTiter96™ MTS assay (Promega, San Luis Obispo, Calif.) and read at 492 nm. % migration was defined as the # of cells in the lower chamber […] the number of cells in both the upper and lower chamber. Each assay was set up in triplicate, repeated at least five times and analyzed statistically by Student's t test (with statistical significance set at P<0.05). […] The in vitro cell proliferation assay was analyzed by measuring increases in cell number using the CellTiter96™ MTS assay (Promega, San Luis Obispo, Calif.) and read at 492 nm. […]

HPMVEC [3] = test: EC proliferation (CellTiter96 MTS); assay type: cell-based, human; details: 100 nM HA with or without 100 nM VEGF, or siRNA 48 hours then VEGF; 24 h
Description: as §1

Row | Substance | cortical actin ring formation (F-actin localization) [1] | EC migration (% Migration) (HPMVEC [2]) | EC proliferation (% Proliferation) (HPMVEC [3]) | cortical actin staining / F-actin stress fiber formation ([1]; challenge for 30 min)
1 | hyaluronan [HMW-HA] | induced prominent cortical actin ring formation early on | inhibited VEGF-induced hyaluronidase expression, EC proliferation (A) and migration (B) | inhibited VEGF-induced hyaluronidase expression, EC proliferation (A) and migration (B) | –
2 | hyaluronan [LMW-HA, reference compound] | induced prominent cortical actin ring formation early on | promotes EC proliferation and migration | promotes EC proliferation and migration | loss of cortical actin staining with increased F-actin stress fiber formation
